{
  "source": "patent US20250059229A1",
  "about": "“Compositions and Methods for Selective Labeling of Secondary Amines” (Emory University, priority 2021, published 2025)",
  "assay": "Fluorescence (chromophoric) properties of 2H-indazole-3-carbaldehyde",
  "format": "physicochemical",
  "details": "FIG. 9D",
  "data": [
    {"smiles": "O=Cc1[nH]nc2ccccc12", "note": "[2H-indazole-3-carbaldehyde]", "values": [
      {"measurement": "fluorescence wavelength", "value": "about 500 nm"},
      {"measurement": "increase in fluorescence as compared to unmodified PAF", "setting": "compared to unmodified PAF", "value": 100, "unit": "fold"}
    ]}
  ]
}
